# Experimental data reported in patent US12011469B2, “Parenteral delivery device and methods of use” (Vireo Systems, Inc., priority 2017, dated 2024).
# Tests used:
# Lactobacilli = conditions: 60 mg hydrogen borate in well, LB-agar, overnight; Lactobacilli added one hour or 12 hours after hydrogen borate
# Procedure: Lactobacillus capsular material (40 mg) was suspended in 1.0 milliliter of LB-broth and 25 microliters was spread on the surface of half of an LB-agar plate. For comparison, the other half of the plate spread with C. albicans. A hole was punched in the middle of the plate and 60 mg of hydrogen borate was added. The plates were incubated overnight and scored for growth and/or a zone of inhibition around the hydrogen borate well.
# In some cases, only about a quarter of the LB-agar plate was spread with the L-capsular suspension in which case only 10 microliters was used.
# [1] = system: co-cultures of C. albicans and Lactobacilli; conditions: Lactobacilli added dropwise immediately after C. albicans was spread onto the plate
# From the text: In some cases, the C. albicans was co-cultured with the Lactobacilli. For this inoculum, equal volumes of the two suspensions of organisms described earlier were mixed and used to spread on LB-agar plates for testing for any effect of the co-culture on the anti-yeast activity of hydrogen borate or any effect on Lactobacillus growth.
# [2] = system: Candida albicans, ATTC number 10231; test: microbe, parasite or virus in culture; conditions: read-out: zone of inhibition against the yeast, Candida albicans
# Procedure: Candida albicans, ATTC number 10231, was used as a test organism. Cultures of C. albicans were grown in a rotator overnight at room temperature in tubes of LB-broth. The cultures contained approximately 1×10^8 organisms per mL. The suspension was diluted 1:1000 in LB-broth and 50 microliters were spread on the surface of a LB-agar plate, i.e., approximately 5,000 organisms.
smiles,measurement,setting,value
OB(O)O [hydrogen borate],effect on the growth of Lactobacilli,Lactobacilli,did not have an effect
same,effect of co-culture on the anti-yeast activity of hydrogen borate,[1],did not affect the activity
same,zone of inhibition at 60000 µg/disc,[2],45 mm
